The nature of data set [1]: Pharmacokinetic evaluation of Vacquinol-1 stereoisomers, plasma and brain. Format: in vivo, NMRI (SR/RS) or BALB/c (Vrac) mice. As to conditions: for Cmax Brain / tlast Brain / tlast Plasma / AUC(0-t) / half-life / Tmax / Cmax: mice. Here is the method: The pharmacokinetics of Vacquinol-1 (racemic), Vacquinol-1RS and Vacquinol-1SR, were determined in NMRI (SR/RS) or BALB/c (Vrac) mice following single intravenous (i.v.) or per oral (p.o) administration of 2 or 20 mg/kg Vacquinol-1, respectively. Blood and brain samples were taken from animals at the following nominal time points: 15, 30, and 60 minutes, and 2, 4, 6, 8, 24, 48, 72 and 144 hours after dosing (n=3/time-point). Bioanalytical quantification of Vacquinol-1 was analysed in plasma and brain samples by a UPLC-MS/MS.
Pharmacokinetics were calculated by non-compartmental analysis (NCA) from composite (mean) profiles. Nominal sampling times and dose levels have been used for the NCA calculations.

Data set [2] deals with histone H3 trimethylation at lysine 27 (H3K27me3). Put plainly: Western blot of GSC for H3K27me3. In kind it is cell-based, human. As to conditions: GSC treated for 5 min to 26 hours. Here is the method:
Cell extracts were immunoblotted for phosphor-MKK4 (P-MKK4) and histone H3 trimethylation at lysine 27 (H3K27me3).
Whole-cell extracts were prepared in SDS-buffer (25 mM Tris-HCl, pH 7.5, 1 mM EDTA, protease inhibitor cocktail (Roche), and phosphatase inhibitors [2 mM sodium orthovanadate, 20 mM beta-glycerolphosphate], and 1% SDS). The samples were analysed by western blot as described previously (Aranda et al. (2008) Mol Cell Biol, 28, 5899-5911) with the following antibodies: anti-Histone H3 (Abcam), antitrimethyl(Lys27)-Histone H3 (Millipore) and anti-phospho(S257/Thr261)-SEK1/MKK4 (R&D Systems).

The next data set deals with U3013MG GSC xenograft. Put plainly: Mouse Kaplan-Meier experiment, oral S10 at terminal stage of GBM. Format: in vivo, NOD-SCID mice. Particulars: 20 mg/kg per orally for five days. Here is the method:
The bioavailability of S10 by oral and intraperitoneal injection in vivo was investigated. […] In a second delivery regimen, treatment was performed per orally (20 mg/kg) twice daily for five days. Treatment started at a terminal stage of GBM, i.e. six weeks after engraftment of U3013M GSCs and median survival from the time of treatment initiation and the Hazard ratio were scored.
For Kaplan-Meier experiments, 100,000 GSC from U3013MG we injected into NOD-SCID mice as described above. Mice were then monitored for 6 weeks and then oral administration regiment was started. Mice were either given 200 μl of water or S10 in water corresponding to 20 mg/kg, via oral gavage. A total of nine animals were taken for each treatment (control, S10). The oral administration was followed once a day for five days following which the administration was stopped and the animals monitored till they reach the humane end point, after which they were sacrificed.

The nature of data set [3]: Tolerance of oral dosing of S10. Format: in vivo. Particulars: 20 mg/kg/day oral gavage for one week, weight loss and signs of distress.
Data set [4] has as its system U3013M GSCs intracranial tumor. Put plainly: Mouse xenograft experiment, intracranial infusion by osmotic minipump. Format: in vivo, Nod/SCID mice. Particulars: 15 μM, 0.5 μL/hr, one week, started 6 weeks after grafting, vs vehicle. As for the experimental part:
The ability of S10 to attenuate tumor progression was next examined in a mouse model for human GBM. Nod/SCID mice received intracranial injections of 100 000 U3013M GSCs and the resulting tumor was allowed to develop for 7 weeks. […] Tumors were highly immunoreactive for human Nestin (hNestin) and human GFAP (hGFAP). S10 (15 μM, 0.5 μL/hr) or vehicle (DMSO) was administered into the site of original cell deposit by an osmotic minipump 6 weeks after cells were grafted. Animals were collected for histological analysis following one week of treatment. […] A massive LAMP1 staining was observed within the tumor cell mass following one week S10 administration, with most or all cells displaying immunoreactivity while mice receiving vehicle were devoid of LAMP1.
GSCs were dissociated with trypsin, resuspended in PBS and kept on ice and the viability of cells were checked using trypan blue before and after the experiment. Surgery in mice was performed using sterile techniques, 6 to 8 week old NOD-SCID mice were anaesthetized using a mixture of isoflurane and oxygen. […] The mice were monitored for weight loss and signs of distress. […]

Where two headings read alike, the source gives them in different places.

With `OC(c1cc(-c2ccc(Cl)cc2)nc2ccccc12)C1CCCCN1` (racemic) [Compound S10, (2-(4-chlorophenyl)quinolin-4-yl)(piperidin-2-yl)methanol], the “Cmax Brain” value in data set [1] (2 mg/kg i.v.) worked out at 514 ng/mL; in data set [1] (20 mg/kg p.o.), 1860 ng/mL. Moreover, the “tlast Brain” value in data set [1] (2 mg/kg i.v.) and in data set [1] (20 mg/kg p.o.) was 144 h in each case. Besides, the “tlast Plasma” value in data set [1] (2 mg/kg i.v.) and in data set [1] (20 mg/kg p.o.) was 144 h each time. In data set [1] (NMRI (single stereoisomers SR/RS), BALB/c (racemate), mouse, brain and plasma, 20 mg/kg, after oral dosing, read-out: relative brain/plasma exposure ratio (AUClast(brain)/AUClast(plasma))), the Kp was found to be 0.6. Further, the AUC(0-t) worked out at 20.4 µg·h/mL in data set [1] (NMRI (single stereoisomers SR/RS), BALB/c (racemate), mouse, brain, iv, 2 mg/kg i.v., read-out: AUClast Brain); 167 µg·h/mL in data set [1] (NMRI (single stereoisomers SR/RS), BALB/c (racemate), mouse, brain, po, 20 mg/kg p.o., read-out: AUClast Brain); 64.5 µg·h/mL in data set [1] (NMRI (single stereoisomers SR/RS), BALB/c (racemate), mouse, plasma, iv, 2 mg/kg i.v., read-out: AUClast Plasma); 292 µg·h/mL in data set [1] (NMRI (single stereoisomers SR/RS), BALB/c (racemate), mouse, plasma, po, 20 mg/kg p.o., read-out: AUClast Plasma). Also, the half-life was 63 h in data set [1] (NMRI (single stereoisomers SR/RS), BALB/c (racemate), mouse, brain, iv, 2 mg/kg i.v., read-out: t1/2 Brain (converted)) and 52 h in data set [1] (NMRI (single stereoisomers SR/RS), BALB/c (racemate), mouse, plasma, iv, 2 mg/kg i.v., read-out: t1/2 Plasma (converted)). The Tmax in data set [1] (NMRI (single stereoisomers SR/RS), BALB/c (racemate), mouse, brain, po, 20 mg/kg p.o., read-out: tmax Brain) came to 48 h; in data set [1] (NMRI (single stereoisomers SR/RS), BALB/c (racemate), mouse, plasma, po, 20 mg/kg p.o., read-out: tmax Plasma), 24 h. Also, the Cmax in data set [1] (NMRI (single stereoisomers SR/RS), BALB/c (racemate), mouse, plasma, iv, 2 mg/kg i.v.) turned out to be 467 ng/mL; in data set [1] (NMRI (single stereoisomers SR/RS), BALB/c (racemate), mouse, plasma, po, 20 mg/kg p.o.), 3280 ng/mL. The “Cmax exposures ratio (Cmax(brain)/Cmax(plasma))” value in data set [1] (after oral dosing) was 0.6. The “effect on H3K27me3” value in data set [2] was “lack of inhibition effects”. Also, in the data set on U3013MG GSC xenograft (comparison of the two survival curves), the “Hazard ratio (rate of death untreated vs S10 treated group)” value worked out at 2.293. For the same compound, the “median survival from the time of treatment initiation” value with U3013MG GSC xenograft (start six weeks after engraftment, n=9, DMSO treated animals 7 days) is 12 days. Further, in data set [3], the “tolerance of oral dosing” value is listed as “well tolerated”. For the same compound, in data set [4], the “loss of brain tissue by necrosis” value was “markedly and significantly reduced”. The “tumor infiltration and area of hGFAP and hNestin immunoreactivity” value in data set [4] was “significantly reduced”.

The values are drawn from patent publication US20160214958A1, “COMPOUNDS AND USE FOR TREATING CANCER” (GLIONOVA AB, priority 2013, published 2016).
